Where two headings read alike, the source gives them in different places.
Key:
HeLa S3 cells = experiment: Test for growth inhibition of HeLa S3 cells; type: cell-based
Procedure: Test for Growth Inhibition of Hela S3 Cells
HeLa S3 cells prepared at 1×10^4 cells/ml in MEM culture medium containing 10% fetal bovine serum and 2 mM glutamine were added to each well of a 96-well microtiter plate (0.1 ml for each well). The cells were cultured at 37° C. in a CO2 incubator for 24 hours, and then 0.05 ml of test compound appropriately diluted with the above medium was added to each well, and then the mixture was cultured at 37° C. in a CO2 incubator for 72 hours. After the culture supernatant was removed, each well was washed with 0.1 ml of PBS buffer twice, and 0.1 ml of the aforementioned medium was added to each well again.
Cell Proliferation Kit II (Boehringer Mennheim) was used for measurement of cell number in each well. After a coloring reaction reagent was added, the plate was warmed to 37° C. in a CO2 incubator for 3 hours. Then, absorbances at 490 nm and 655 nm were measured by a microplate reader, and a value (difference of absorbance) was calculated for each well by subtracting the absorbance at […] from the absorbance at 490 nm. By comparing the differences of absorbance for cells without treatment and cells treated with a test compound at a known concentration, a concentration of test compound which inhibited the cell growth by 50% was calculated, and the value obtained was determined as IC50. The values of RNR inhibitory activity obtained in Example 8, and the values of cell growth inhibitory activity obtained in Example 9 are shown in the following tables (the compound numbers used in the tables correspond to the compound numbers shown in the aforementioned tables).

[1] = system: human ovary cancer A2780 cells; experiment: Antineoplastic effect against human ovary cancer A2780 cells transplanted to nude mice; type: in vivo, nude mice BALB/cAJcl-nu; conditions: Mus musculus, read-out: Antitumor activity T/C
From the text: Antineoplastic Effect Against Human Ovary Cancer A2780 Cells
2 mm cubes (tumor fragments of 8 mm^3) of human ovary cancer A2780 cells were subcutaneously transplanted to nude mice BALB/cAJcl-nu (CLEA JAPAN) in the abdomens. When the tumor volume reached to from 50 to 300 mm^3 after the transplantation, the mice were arbitrarily divided into groups each consisting of 5 mice, and intraperitoneally administered with a drug solution once a day for 5 days. After weighing compounds, the drug solution was prepared before use by dissolving the drug in 99.5% ethanol (final concentration: 5%, analytical grade, Kanto Kagaku) or N,N-dimethylacetamide (final concentration: 5%, analytical grade, Kanto Kagaku), adding CREMOPHOR EL (a derivative of caster oil and ethylene oxide, final concentration: 10%, Sigma Chemical) to the solution, and suspending the solution in physiological saline (Otsuka Physiological Saline for Injection, Otsuka Pharmaceutical). For evaluation of the effect, a tumor volume was calculated in accordance with Equation 1, a ratio of tumor volume (V) after the administration of drug solution to tumor volume (V0) before the administration of drug solution was calculation (V/V0), and the ratio was compared with that for the untreated group to determine T/C (Equation 2). In the table, administration dose, T/C and evaluation day are shown. [formula]

[2] = target: T1, human RNR (purified R1 and R2 subunits) (Homo sapiens, UniProt P23921+P31350); experiment: In vitro measurement of human RNR inhibitory activity (conversion of CDP to dCDP, HPLC); type: biochemical; conditions: 100 μM CDP, 37° C., 30 minutes, read-out: RNR Inhibition (IC50)
T1 construct: made in house; host or cells: Escherichia coli BL21(λDE3)pLysS, plasmids pETR1 and pETR2 (pET3a backbone)
T1 sequence (P23921 1-792): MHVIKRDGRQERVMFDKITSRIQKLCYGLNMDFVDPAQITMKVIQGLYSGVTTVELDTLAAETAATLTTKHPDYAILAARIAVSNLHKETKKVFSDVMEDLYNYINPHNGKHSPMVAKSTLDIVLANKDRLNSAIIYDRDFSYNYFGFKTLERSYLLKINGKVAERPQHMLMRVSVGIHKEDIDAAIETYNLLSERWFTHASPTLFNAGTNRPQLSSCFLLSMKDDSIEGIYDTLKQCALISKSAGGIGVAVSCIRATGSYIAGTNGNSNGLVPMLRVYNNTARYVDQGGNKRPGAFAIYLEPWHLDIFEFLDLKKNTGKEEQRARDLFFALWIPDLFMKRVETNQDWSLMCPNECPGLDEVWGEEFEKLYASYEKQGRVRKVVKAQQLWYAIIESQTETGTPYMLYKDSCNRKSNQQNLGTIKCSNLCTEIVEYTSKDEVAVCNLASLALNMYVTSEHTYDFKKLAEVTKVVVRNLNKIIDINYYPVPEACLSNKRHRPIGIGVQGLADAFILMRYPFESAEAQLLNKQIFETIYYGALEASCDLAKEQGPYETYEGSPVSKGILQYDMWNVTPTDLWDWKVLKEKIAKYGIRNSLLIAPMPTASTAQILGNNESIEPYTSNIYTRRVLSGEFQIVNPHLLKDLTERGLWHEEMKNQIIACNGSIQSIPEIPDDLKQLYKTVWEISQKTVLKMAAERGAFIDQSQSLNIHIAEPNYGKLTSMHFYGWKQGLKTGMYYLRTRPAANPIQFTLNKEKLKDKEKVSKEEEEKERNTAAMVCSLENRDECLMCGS
T1 sequence (P31350 1-389): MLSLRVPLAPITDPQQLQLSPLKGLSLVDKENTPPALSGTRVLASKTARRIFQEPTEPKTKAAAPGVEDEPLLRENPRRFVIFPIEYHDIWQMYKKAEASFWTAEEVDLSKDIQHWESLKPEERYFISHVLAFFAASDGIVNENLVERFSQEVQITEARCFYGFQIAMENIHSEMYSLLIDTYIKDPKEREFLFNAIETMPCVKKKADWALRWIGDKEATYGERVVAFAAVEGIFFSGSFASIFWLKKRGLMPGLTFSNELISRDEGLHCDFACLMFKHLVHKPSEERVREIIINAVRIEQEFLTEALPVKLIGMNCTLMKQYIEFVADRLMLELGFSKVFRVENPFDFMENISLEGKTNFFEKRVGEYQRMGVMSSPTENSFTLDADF

[3] = system: human lung cancer Lu-65 cells; experiment: Antineoplastic effect against human lung cancer Lu-65 cells transplanted to nude mice; type: in vivo, nude mice BALB/cAJcl-nu; conditions: Lu-65 s.c. in nude mice; 1000 (500 × 2) mg/kg/day intraperitoneally twice a day for 5 days; evaluation day 7
From the text: Antineoplastic Effect Against Human Lung Cancer Lu-65 Cells
2 mm cubes (tumor fragments of 8 mm^3) of human lung cancer Lu-65 cells were subcutaneously transplanted to nude mice BALB/cAJcl-nu (CLEA JAPAN) on their abdomens. When the tumor volume reached to from 50 to 300 mm^3 after the transplantation, the mice were arbitrarily divided into groups each consisting of 5 mice, and intraperitoneally administered with a drug solution twice a day for 5 days. After weighing compounds, the drug solution was prepared before use by dissolving the drug in 99.5% ethanol (final concentration: 5%, analytical grade, Kanto Kagaku), adding CREMOPHOR EL (a derivative of caster oil and ethylene oxide, final concentration: 10%, Sigma Chemical) to the solution, and suspending the solution in physiological saline (Otsuka Physiological Saline for Injection, Otsuka Pharmaceutical). For evaluation of the effect, a tumor volume was calculated in accordance with Equation 1, a ratio of tumor volume (V) after the administration of drug solution to tumor volume (V0) before the administration of drug solution was calculated (V/V0), and the ratio was compared with that for the untreated group to determine T/C (Equation 2). [formula]

[4] = Homo sapiens, HeLa S3, 72 h, HeLa S3 cells, 72 hours with test compound, Cell Proliferation Kit II, read-out: Cell growth inhibition (IC50)
[5] = ip, 168 h, A2780 s.c. in nude mice, 500 mg/kg/day intraperitoneally once a day for 5 days, evaluation day 7
[6] = ip, 96 h, A2780 s.c. in nude mice, 500 mg/kg/day intraperitoneally once a day for 5 days, evaluation day 4

Row | SMILES | IC50 (HeLa S3 cells; [4]) | IC50 [2] | further results
1 | O=C(CN(CCSc1ccc(O)cc1)CCSc1ccc(O)cc1)Nc1ncccn1 [Compound 211] | 3.04 µM | 3.24 µM | response vs control in vivo at 500 mg/kg/day ([1]; ip, 216 h, A2780 s.c. in nude mice, 500 mg/kg/day intraperitoneally once a day for 5 days, evaluation day 9): 37%
2 | CC(=O)Oc1ccc(SCCN(CCSc2ccc(OC(C)=O)cc2)CC(N)=O)cc1 [Compound 193] | 0.36 µM | – | response vs control in vivo at 250 mg/kg/day ([1]; ip, 96 h, A2780 s.c. in nude mice, 250 mg/kg/day intraperitoneally once a day for 5 days, evaluation day 4): 46%
3 | Oc1ccc(SCCOCCSc2ccc(O)c(F)c2)cc1F [Compound 190] | 16.9 µM | 1.38 µM | melting point: 87 to 88 °C
4 | OCCN(CCSc1ccc(O)cc1)CCSc1ccc(O)cc1 [Compound 102] | 1.42 µM | 0.69 µM | response vs control in vivo at 500 mg/kg/day [1, 5]: 47%
5 | CN(C)C(=O)CCN(CCSc1ccc(O)cc1)CCSc1ccc(O)cc1 [Compound 79] | 3.06 µM | 1.37 µM | response vs control in vivo at 500 mg/kg/day [1, 6]: 40%
6 | Oc1ccc(SCCOCCSc2ccc(O)cc2)cc1 [Compound 27] | – | 0.5 µM | Antitumor activity T/C [3]: 0.25; IC50 (HeLa S3 cells; Homo sapiens, HeLa S3, 72 h, read-out: Cell growth inhibition (IC50, μM)): 1.53 µM; response vs control in vivo at 500 mg/kg/day ([1]; A2780, ip, 168 h): 46%
7 | Oc1ccc(SCCN(CCSc2ccc(O)cc2)Cc2ccncc2)cc1 [Compound 91] | 2.72 µM | 1.69 µM | response vs control in vivo at 500 mg/kg/day [1, 6]: 48%
8 | CC(C)(CSc1ccc(O)cc1)C(=O)N1CCN(C(=O)C(C)(C)CSc2ccc(O)cc2)CC1 [Compound 227] | – | – | response vs control in vivo at 500 mg/kg/day [1, 5]: 53%
9 | NC(=O)C1CCCCN1C(=O)CN(CCSc1ccc(O)cc1)CCSc1ccc(O)cc1 (stereo not shown) [Compound 209] | 3.09 µM | 2.67 µM | response vs control in vivo at 500 mg/kg/day [1, 5]: 50%
10 | COCCCN(CCSc1ccc(O)cc1)CCSc1ccc(O)cc1 [Compound 103] | 1.74 µM | 2.11 µM | response vs control in vivo at 500 mg/kg/day [1, 6]: 50%
11 | NC(=O)CCN(CCSc1ccc(O)cc1)CCSc1ccc(O)cc1 [Compound 78] | 1.61 µM | 0.31 µM | response vs control in vivo at 500 mg/kg/day [1, 6]: 53%
12 | Oc1ccc(SCCN(O)CCSc2ccc(O)cc2)cc1 [Compound 48] | 5.16 µM | 1.73 µM | response vs control in vivo at 500 mg/kg/day [1, 5]: 54%
13 | CCCN(CCSc1ccc(O)cc1)CCSc1ccc(O)cc1 [Compound 72] | 2.18 µM | 1.19 µM | response vs control in vivo at 500 mg/kg/day [1, 6]: 50%
14 | NC(=O)CN(CCSc1ccc(O)cc1)CCSc1ccc(O)cc1 [Compound 97] | – | – | melting point: 105 to 106 °C; IC50 (HeLa S3 cells; HeLa S3 cells, 72 hours with test compound, Cell Proliferation Kit II, read-out: Cell growth inhibition (IC50)): 0.88 µM; response vs control in vivo at 500 mg/kg/day [1, 5]: 43%
15 | Oc1ccc(SCCN(CCSc2ccc(O)cc2)Cc2ccccn2)cc1 [Compound 100] | 4.97 µM | 1.58 µM | melting point: 80 to 81 °C
16 | Oc1ccc(SCCN(CCSc2ccc(O)cc2)Cc2cccc(O)c2)cc1 [Compound 93] | 9.04 µM | 0.63 µM | –
17 | N#CCN(CCSc1ccc(O)cc1)CCSc1ccc(O)cc1 [Compound 77] | 2.38 µM | 0.06 µM | response vs control in vivo at 500 mg/kg/day [1, 6]: 54%
18 | Oc1ccc(SCCOCCOCCSc2ccc(O)cc2)cc1 [Compound 163] | 5.17 µM | 2.1 µM | –
19 | OC[C@@H]1OC(N(CCSc2ccc(O)cc2)CCSc2ccc(O)cc2)[C@@H](O)[C@H](O)[C@H]1O (stereo partly shown) [Compound 216] | 11.5 µM | 3.63 µM | –
20 | CC(CSc1ccc(O)cc1)Sc1ccc(O)cc1 (stereo not shown) [Compound 152] | 18 µM | 5.14 µM | –
21 | Oc1ccc(SCSCSc2ccc(O)cc2)cc1 [Compound 158] | 12.7 µM | 1.42 µM | –
22 | Oc1ccc(SCCN(CCSc2ccc(O)cc2)Cc2ccco2)cc1 [Compound 90] | 6.38 µM | 2.03 µM | –
23 | Oc1ccc(CN(CCSc2ccc(O)cc2)CCSc2ccc(O)cc2)cc1 [Compound 94] | 4 µM | 0.46 µM | response vs control in vivo at 500 mg/kg/day [1, 5]: 53%
